Reference: patent publication US20140018353A1, “METHOD OF TREATING B-CELL MALIGNANT CANCERS AND T-CELL MALIGNANT CANCERS USING THIENOTRIAZOLODIAZEPINE COMPOUNDS” (Oncoethix SA, priority 2012, published 2014)
Entries after “also recorded” stand apart in the source; their conditions may differ.

What was measured:
DoHH2 = assay: MTT proliferation assay, 72 h; assay type: cell-based; details: Homo sapiens, DOHH-2, DoHH2 (DLBCL), read-out: estimated IC50
Procedure: (§1) The activity of Formula 2 was evaluated in four mantle cell lymphoma (MCL), ten diffuse large B-cell lymphoma (DLBCL) established human cell lines, a set of multiple myeloma (MM) cell lines, three splenic marginal zone lymphoma (SMZL) cell lines and eight anaplastic large T-cell lymphoma (ALCL) cell lines. Cells were exposed to increasing doses of the compound for 72 hours.
(§2) The proliferation assay was performed using the following procedure. Cells were seeded into 96-well plates at the density of 104 per well. Formula 2 (Oncoethix SA, Lausanne, Switzerland) was dissolved in DMSO as a stock solution of 10 mM and divided in aliquots stored at −80° C. For each experiment, an aliquot of the stock solution was thawed and used within 2 to 3 days. Formula 2 was serially diluted in tissue culture media, added to cells (in five replicates) and incubated for 72 hours at 37° C. Control cells were treated with equal amounts of DMSO. The 3-(4,5-dimethylthiazol-2-yl)-2,5-diphenyltetrazolium bromide (MTT) (Sigma, Buchs, Switzerland) was prepared as a stock of 5 mg/mL in phosphate-buffered saline (PBS) and filter-sterilized. An amount of MTT solution equal to 0.5 mg/mL was then added to each well and incubated in the dark at 37° C. for 4 hours. Cells were then lysed with 25% sodium dodecylsulfate (SDS) lysis buffer and absorbance was read at 570 nm on a Beckman Coulter-AD340 instrument. Three independent experiments were run for each cell line. The doses corresponding to the IC50 were estimated by fitting a sigmoidal model through the dose response curve using the R statistical package (R: A Language and Environment for Statistical Computing, R Foundation for Statistical Computing, Vienna, Austria).

Granta-519 = assay: MTT proliferation assay, 72 h; assay type: cell-based; details: Homo sapiens, Granta-519 (MCL), read-out: estimated IC50
Procedure: as §1, §2

JeKo-1 = assay: MTT proliferation assay, 72 h; assay type: cell-based; details: Homo sapiens, JeKo-1 (MCL), read-out: estimated IC50
Procedure: as §1, §2

Karpass 422 = assay: MTT proliferation assay, 72 h; assay type: cell-based; details: Homo sapiens, Karpass 422 (DLBCL), read-out: estimated IC50
Procedure: as §1, §2

MAVER-1 = assay: MTT proliferation assay, 72 h; assay type: cell-based; details: Homo sapiens, Maver1, MAVER-1 (MCL), read-out: estimated IC50
Procedure: as §1, §2

MM1S = assay: MTT proliferation assay, 72 h; assay type: cell-based; details: Homo sapiens, MM1.S, MM1S (MM), read-out: estimated IC50
Procedure: as §1, §2

OCI-Ly7 = assay: MTT proliferation assay, 72 h; assay type: cell-based; details: Homo sapiens, OCI-Ly7 (DLBCL), read-out: estimated IC50
Procedure: as §1, §2

RPMI8226 = assay: MTT proliferation assay, 72 h; assay type: cell-based; details: Homo sapiens, RPMI-8226, RPMI8226 (MM), read-out: estimated IC50
Procedure: as §1, §2

Rec-1 = assay: MTT proliferation assay, 72 h; assay type: cell-based; details: Homo sapiens, Rec1, Rec-1 (MCL), read-out: estimated IC50
Procedure: as §1, §2

SU-DHL-2 = assay: MTT proliferation assay, 72 h; assay type: cell-based; details: Homo sapiens, SU-DHL-2 (DLBCL), read-out: estimated IC50
Procedure: as §1, §2

SU-DHL-4 = assay: MTT proliferation assay, 72 h; assay type: cell-based; details: Homo sapiens, SU-DHL-4 (DLBCL), read-out: estimated IC50
Procedure: as §1, §2

SU-DHL-5 = assay: MTT proliferation assay, 72 h; assay type: cell-based; details: Homo sapiens, SU-DHL-5 (DLBCL), read-out: estimated IC50
Procedure: as §1, §2

SU-DHL-6 = assay: MTT proliferation assay, 72 h; assay type: cell-based; details: Homo sapiens, SU-DHL-6 (DLBCL), read-out: estimated IC50
Procedure: as §1, §2

SU-DHL-7 = assay: MTT proliferation assay, 72 h; assay type: cell-based; details: Homo sapiens, SU-DHL-7 (DLBCL), read-out: estimated IC50
Procedure: as §1, §2

U-2932 = assay: MTT proliferation assay, 72 h; assay type: cell-based; details: Homo sapiens, U2932, U-2932 (DLBCL), read-out: estimated IC50
Procedure: as §1, §2

U266 = assay: MTT proliferation assay, 72 h; assay type: cell-based; details: Homo sapiens, U-266, U266 (MM), read-out: estimated IC50
Procedure: as §1, §2

DLBCL cell lines [1] = assay: MTT proliferation assay, 72 h; assay type: cell-based, human; details: for IC50: Homo sapiens
Procedure: as §1, §2

MCL cell lines = assay: MTT proliferation assay, 72 h; assay type: cell-based, human; details: three MCL cell lines
Procedure: as §1, §2

MM cell lines [2] = assay: MTT proliferation assay, 72 h; assay type: cell-based, human; details: all MM cell lines
Procedure: as §1, §2

VAL = assay: MTT proliferation assay, 72 h; assay type: cell-based, human
Procedure: as §1, §2

SMZL cell lines = assay: MTT proliferation assay; assay type: cell-based, human; details: three SMZL cell lines
Procedure: as §1
as §2, with “An amount of MTT solution equal to 0.5 mg/mL was then added to each well and incubated in the dark at 37° C. for 4 hours.” left out, “Three independent experiments were run for each cell line. The doses corresponding to the IC50 were estimated by fitting a sigmoidal model through the dose response curve using the R statistical package (R: A Language and Environment for Statistical Computing, R Foundation for Statistical Computing, Vienna, Austria).” left out
The activity of Formula 2 was also evaluated in SMZL cell lines using the procedures described in Example 1. […]

ALCL cell lines = assay: MTT proliferation assay; assay type: cell-based, human; details: eight ALCL cell lines
Procedure: as §1
as §2, with “An amount of MTT solution equal to 0.5 mg/mL was then added to each well and incubated in the dark at 37° C. for 4 hours.” left out, “Three independent experiments were run for each cell line. The doses corresponding to the IC50 were estimated by fitting a sigmoidal model through the dose response curve using the R statistical package (R: A Language and Environment for Statistical Computing, R Foundation for Statistical Computing, Vienna, Austria).” left out
The activity of Formula 2 was also evaluated in ALCL cell lines using the procedures described in Example 1. […]

DLBCL cell lines [3] = assay: Cell death, propidium iodide flow cytometry; assay type: cell-based, human; details: 24 and 72 hours, 0.1-15 μM; SU-DHL-2 and DoHH2
Procedure: Cell death was evaluated as follows. […], harvested and washed once in PBS and then stained with propidium iodide (PI 1 μg/ml, Sigma) in PBS and analyzed using a FACScan flow cytometer (Becton Dickinson, Mountain View, Calif., USA). The analysis of the percentage of cell death was performed using CellQuest Pro software (Becton Dickinson).

DLBCL cell lines [4] = assay: Cell cycle analysis, flow cytometry; assay type: cell-based, human; details: five DLBCL cell lines, 24 h
Procedure: (§3) Cell cycle analysis was performed using the following procedure. Cells were treated with DMSO or different doses of Formula 2 for 24 hours, harvested and washed once in PBS and then fixed in 80% ethanol at 4° C. for at least one hour. Cells were stained with propidium iodide (PI 50 μg/ml, Sigma) in PBS containing RNAse-A (75 kU/ml, Sigma) and analyzed for DNA content using a FACScan flow cytometer (Becton Dickinson). Cell cycle analysis was performed using the ModFit LT software package (Verity Software House, Inc., Topsham, Me., USA).
Not having observed the induction of massive cell death despite the important effect on cell viability, the effect of Formula 2 on the cell cycle was investigated (FIG. 6). […] FIG. 7 illustrates representative flow cytometry profiles of untreated control cells and SU-DHL-6 cells treated for 24 hours with 0.2 in μM of Formula 2.

[5] = tested on: c-MYC mRNA in DLBCL cell lines; assay: c-MYC mRNA levels, real-time PCR; assay type: cell-based, human
Procedure: (§4) RNA was extracted using the RNA easy kit (Qiagen AG, Hombrechtikon, Switzerland). The concentration of total RNA was determined spectrophotometrically at 260 nm using a NanoDrop spectrometer (NanoDrop Technologies, Wilmington, Del., USA). One microgram of total RNA was reverse-transcribed using the Superscript First-Strand Synthesis System for real-time PCR kit (Invitrogen, Karlsruhe, Germany) according to the manufacturer's instructions. PCR amplification was performed using Fast SYBR Green Master Mix on a StepOnePlus real-time PCR System (Applied Biosystems, Foster City, Calif., USA). Primer sets (Table 2) were designed using the Primer3 software package (Rozen, S., Skaletsky, H. Primer3 on the WWW for general users and for biologist programmers. In: Misener, S., Krawetz, S. A., Eds. Methods in Molecular Biology, Vol. 132: Bioinformatics Methods and Protocols. Totowa, N.J., USA: Humana Press Inc., 2000, pp. 365-386). All samples were analyzed in triplicate. The relative quantity of the specific mRNA for each sample was calculated based on mean cycle threshold (Ct) values using the delta-delta Ct with a correction for experimental variations by normalization to the housekeeping gene GAPDH.

[6] = tested on: NFκB target genes in DLBCL cell lines; assay: NFκB target gene expression; assay type: cell-based, human; details: two DLBCL cell lines
Procedure: as §4
BRD4 co-activates transcriptional activation of NF-B via specific binding to acetylated ReIA. […]

MM cell lines [7] = assay: Cell death, propidium iodide flow cytometry; assay type: cell-based, human
Procedure: Cell death was evaluated as follows. Cells were treated with DMSO or different doses of Formula 2 for 72 hours, harvested and washed once in PBS and then stained with propidium iodide (PI 1 μg/ml, Sigma) in PBS and analyzed using a FACScan flow cytometer (Becton Dickinson, Mountain View, Calif., USA). The analysis of the percentage of cell death was performed using CellQuest Pro software (Becton Dickinson).
(§5) The activity of Formula 2 was also evaluated in MM cell lines. […] All the BRD factors were expressed (FIG. 14).

MM cell lines [8] = assay: Cell cycle analysis, flow cytometry; assay type: cell-based, human; details: two of the three MM cell lines
Procedure: as §3, §5

[9] = tested on: MYC mRNA in MM cell lines; assay: MYC mRNA levels, real-time PCR; assay type: cell-based, human; details: RPMI8226 and MM1S cell lines, 24 hours
Procedure: as §4

MM cell lines [10] = assay: % Annexin V positive cells; assay type: cell-based, human; details: doses at IC50, 24 hours
Procedure: FIG. 18 illustrates the % Annexin V positive cells obtained after doses of Formula 2 at IC50 and 24 hours.

c-MYC in ALCL cell lines = assay: c-MYC mRNA levels, real-time PCR; assay type: cell-based, human; details: 8 and 24 hours of treatment
Procedure: as §4
FIGS. 25A-25E illustrate c-MYC levels in ALCL cell lines after 8 hours of treatment with Formula 2. FIG. 26 illustrates c-MYC levels in ALCL cell lines after 24 hours of treatment with Formula 2.

[11] = tested on: MYC mRNA in MM cell lines; details: reported; cited from earlier work

Cc1sc2c(c1C)C(c1ccc(Cl)cc1)=N[C@@H](CC(=O)Nc1ccc(O)cc1)c1nnc(C)n1-2 [Formula 2, (S)-2-[4-(4-chlorophenyl)-2,3,9-trimethyl-6H-thieno[3,2-f][1,2,4]triazolo-[4,3-a][1,4]diazepin-6-yl]-N-(4-hydroxyphenyl)acetamide]
IC50 (DoHH2): 90 nM | IC50 (Granta-519): > 15000 nM | IC50 (JeKo-1): 2790 nM | IC50 (Karpass 422): 277 nM | IC50 (MAVER-1): 1220 nM | IC50 (MM1S): 59 nM | IC50 (OCI-Ly7): 1390 nM | IC50 (RPMI8226): 700 nM | IC50 (Rec-1): 1220 nM | IC50 (SU-DHL-2): 69 nM | IC50 (SU-DHL-4): 607 nM | IC50 (SU-DHL-5): 189 nM | IC50 (SU-DHL-6): 110 nM | IC50 (SU-DHL-7): 132 nM | IC50 (U-2932): 255 nM | IC50 (U266): 449 nM | IC50 (DLBCL cell lines [1]; seven very sensitive DLBCL cell lines): < 300 nM | IC50 (DLBCL cell lines [1]; two DLBCL cell lines): 600 to 1400 nM | cell viability (DLBCL cell lines [1]; all the DLBCL cell lines): dose-dependent decrease in cell viability | IC50 (MCL cell lines; Homo sapiens): 1200 to 2700 nM | cell viability (MCL cell lines): dose-dependent decrease in cell viability | IC50 (MM cell lines [2]; Homo sapiens): 60 to 700 nM | cell viability (MM cell lines [2]): reduction in cell viability in all the cell lines | IC50 (VAL; Homo sapiens, VAL (DLBCL), MTT, 72 h, read-out: estimated IC50): > 12700 nM | reduction in cell proliferation (VAL; VAL, doses of up to 10 μM): over 40% | cell viability (SMZL cell lines): dose-dependent decrease in cell viability | cell viability (ALCL cell lines): dose-dependent decrease in cell viability | cell death (DLBCL cell lines [3]): induces cell death only in a small percentage of the cell | effect on the cell cycle (DLBCL cell lines [4]): induced a G1-arrest in a dose-dependent manner | c-MYC mRNA levels ([5]; six DLBCL cell lines, 24 hours of treatment): down-regulated in five of the six cell lines | c-MYC levels ([5]; three DLBCL cell lines, 1 hour of treatment): down-regulation of c-MYC in two of three DLBCL cell lines | NFκB target genes expression [6]: partial down-regulation of NFκB target genes | cell death (MM cell lines [7]): did not show an important increase of cell death | cell cycle analysis, S-phase (MM cell lines [8]): significant reduction of S-phase | MYC mRNA levels [9]: significant reduction of MYC mRNA levels in a dose-dependent manner; also recorded: down-regulation of c-MYC in a dose-dependent manner | cytostatic versus cytotoxic effect (% Annexin V positive cells) (MM cell lines [10]): cytostatic effect | c-MYC levels (c-MYC in ALCL cell lines): down-regulation of c-MYC in a dose-dependent manner

Cc1sc2c(c1C)C(c1ccc(Cl)cc1)=N[C@@H](CC(=O)OC(C)(C)C)c1nnc(C)n1-2 [JQ1]
MYC levels [11]: down-regulation of MYC
